Literature values as cited in PMC8295177 (Cancer discovery, 2021).

Tests used:
[1] = test system: unselected stage IV NSCLC; conditions: second-line monotherapy; cited from earlier work
[2] = test system: EGFRex20ins mutants; conditions: cited from earlier work

Row | Structure (SMILES) | median duration of response [1] | inhibition of EGFRex20ins mutants in vitro [2]
1 | CC(=O)O[C@@]12CO[C@@H]1C[C@H](O)[C@@]1(C)C(=O)[C@H](O)C3=C(C)[C@@H](OC(=O)[C@H](O)[C@@H](NC(=O)OC(C)(C)C)c4ccccc4)C[C@@](O)([C@@H](OC(=O)c4ccccc4)[C@H]21)C3(C)C [Docetaxel] | approximately 6 months | 
2 | C=CC(=O)N1CCC(Oc2cc3c(Nc4ccc(Cl)c(Cl)c4F)ncnc3cc2OC)CC1 [Poziotinib] |  | potent inhibition
